In publication PMC10876669, “Substrate promiscuity of inositol 1,4,5-trisphosphate kinase driven by structurally-modified ligands and active site plasticity” (Nature Communications, 2024):
Where “and” joins values, the source holds several entries; their conditions need not be identical. Identical values can stand only once.

Legend:
[1] = target: T1, IP3K-KD (human IP3K-KD A isoform, residues 187–461) (Homo sapiens, UniProt P23677); experiment: Fluorescence thermal shift analysis (Tycho NT.6, inflection temperature Ti); format: binding
T1 construct: human IP3K-KD A isoform (residues 187–461); GST (cleaved yes); made in house; host or cells: Escherichia coli BL21 star (DE3)
T1 sequence (P23677 187-461): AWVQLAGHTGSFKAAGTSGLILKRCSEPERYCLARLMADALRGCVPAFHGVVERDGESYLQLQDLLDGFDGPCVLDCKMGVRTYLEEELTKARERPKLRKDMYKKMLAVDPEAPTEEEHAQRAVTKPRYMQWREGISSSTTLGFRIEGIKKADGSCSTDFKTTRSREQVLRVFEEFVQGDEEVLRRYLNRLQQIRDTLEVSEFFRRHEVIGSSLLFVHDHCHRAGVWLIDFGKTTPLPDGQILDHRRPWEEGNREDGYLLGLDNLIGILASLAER
Method: (§1) A construct encoding human IP3K-KD A isoform (residues 187–461) into pOPTG vector was used[16]. The protein was expressed in Escherichia coli BL21 star (DE3) strain. Cells were grown at 37 °C to OD600 = 1.0 then induced with 0.4 mM IPTG for 18 h at 16 °C. Protein purification was performed by adapting the reported protocol. Cells were resuspended in buffer A (10 mM Tris pH 7.5 [4 °C], 200 mM NaCl and 2 mM DTT) and disrupted by sonication. Clarified cell lysate was diluted 1/4 in buffer B (10 mM Tris pH 7.5 [4 °C] and 2 mM DTT) and loaded into a 5 mL HiTrap heparin column (GE Healthcare) washed by buffer C (20 mM Tris pH 7.5, 50 mM NaCl and 2 mM DTT), and eluted with a 0.05 M–1 M salt gradient. The eluted sample was subsequently loaded on to a 5 mL glutathione–Sepharose HP column (GE Healthcare), washed with buffer A and eluted with reduced glutathione 10 mM (Sigma-Aldrich) in buffer A. The GST tag was cleaved with home-made TEV (tobacco etch virus) protease overnight at 4 °C, (1:40 TEV/protein mass ratio). After glutathione removal with a PD10 column, the cleaved protein was further purified using a 5 mL glutathione–Sepharose HP column (GE Healthcare) followed by gel filtration on a 16/600 Superdex200 (GE Healthcare) column equilibrated in buffer D (20 mM Tris pH 7.5 [4 °C], 0.05 M (NH4)2SO4 and 2 mM DTT). Protein samples were analyzed by SDS/PAGE, concentrated around 18 mg/mL and stored at −80 °C until use.
Thermal protein denaturation was documented by recording intrinsic protein fluorescence at 330 and 350 nm wavelengths. The fluorescence recorded in each thermal run is plotted as 350/330 nm ratio and used to calculate the Inflection Temperature (Ti). Ti is the temperature at which a protein undergoes a transition in its folding state. This calculation is performed automatically by the Tycho NT.6 software. The protocol optimized for this procedure, involves a heating time of 2 min, a sample volume of 10 μl placed in a very thin capillary, and a temperature ramp from 35 °C (308 K) to 95 °C (368 K). For the experiment, IP3K-KD was diluted with buffer D to achieve a concentration of 0.31 mg/mL (10 μM). It was then mixed with 100 μM of chiral ligands or 200 μM of racemic ligands (all synthesized as stated in this work except InsP3 and InsP4 that were commercial from Avanti Polar Lipids), AMP-PNP (substrate analogues) or ADP (product-like ligands) and 100 μM MgCl2. Microsoft Excel was used to calculate and plot ΔTi values and standard deviations.

[2] = target: T1, IP3K-KD (human IP3K-KD A isoform, residues 187–461); experiment: Ligand displacement assay: fluorescence polarization (anisotropy) of 2-FITC-InsP3/IP3K-KD complex; format: binding
Method: as §1
Binding of a competing/displacing ligand to protein is observed as a decrease in the polarization (anisotropy) of 2-FITC-InsP3. A comparison of the strength of binding of enzyme substrates, analogues and products to IP3K-KD was obtained by measurement of fluorescence polarization (here anisotropy) of 2-FITC-InsP3/IP3K-KD complex. Experimentally, 100 nM IP3K-KD was mixed with 2 nM 2-FITC-InsP3[37] in 20 mM HEPES pH 7.5, 1 mM EDTA and 50 mM KCl with the addition of displacing compounds over a range of 1 nM–50 μM. Assays were analyzed using a ClarioSTAR plate reader and IC50 values determined from fit of the data to a 4-parameter logistic as described. From IC50 values, we have estimated the Ki (Kd) values for the displacing ligands using the equation of Cheng and Prusoff:[69]1 Ki=IC50/1+L/Kd where [L] is the ligand (2-FITC-InsP3) concentration and Kd the dissociation constant for its interaction with IP3K-KD. […] Consequently, the Ki values for the displacing ligands differ trivially from their IC50 values.

[3] = tested on: permeabilized rat hepatocytes; design: method as in PMID 11405648; details: cited from earlier work
IP3K-KD = target: T2, IP3K-KD (Homo sapiens, UniProt P23677); experiment: Direct binding of 2-FITC-InsP3 to IP3K-KD, one-site binding model; details: GraphPad Prism
T2 construct: human IP3K-KD A isoform (residues 187–461); GST (cleaved yes); made in house; host or cells: Escherichia coli BL21 star (DE3)
T2 sequence (P23677 187-461): as above

[4] = 10 μM IP3K-KD, 100 μM chiral or 200 μM racemic ligand, AMP-PNP or ADP, 100 μM MgCl2, mean ± SD, n=3
[5] = source data of Fig. 6b/6c, single replicates

| Structure (SMILES) | Ti, transition 1 (mean inflection temperature) [1, 4] | Ti, transition 2 (mean inflection temperature) [1, 4] | ΔTi, transition 1 ([1]; Ti minus Ti of apo IP3K-KD (44.4), mean ± SD, n=3) | ΔTi, transition 2 ([1]; Ti minus Ti of apo IP3K-KD (53.8), mean ± SD, n=3) | Transition 1 Ti, individual measurement [1, 5] | Transition 2 Ti, individual measurement [1, 5] | Transition 1 Dti (Ti-Ti Apo) ([1]; source data of Fig. 6c, N 3) | Transition 1 Ti Mean ([1]; source data of Fig. 6c, N 3) | Transition 2 DTi (Ti-Ti Apo) ([1]; source data of Fig. 6c, N 3) | Transition 2 Ti Mean ([1]; source data of Fig. 6c, N 3) | IC50 ([2]; 100 nM IP3K-KD, 2 nM 2-FITC-InsP3, 20 mM HEPES pH 7.5, 1 mM EDTA, 50 mM KCl, n=4 replicates, 5-s and 5-p racemic, read-out: IC50, displacement of 2-FITC-InsP3 from IP3K-KD) [nM] | Quality as IP3K ligand (in words) ([2]; Fig. 6) | Kd ([2]; estimated Ki (Kd) from IC50 with [2-FITC-InsP3] 2 nM and its Kd 68 nM, read-out: Kd inferred from IC50 (Cheng and Prusoff)) [nM] | Ability to stimulate cellular Ca2+ release [3] | Kd (IP3K-KD) [nM] |
| --- | --- | --- | --- | --- | --- | --- | --- | --- | --- | --- | --- | --- | --- | --- | --- |
| O=P(O)(O)OCC1C(O)C(OP(=O)(O)O)C(O)C(OP(=O)(O)O)C1OP(=O)(O)O (racemic) [5-p, DL-6-deoxy-6-phosphoryloxymethyl-scyllo-inositol 1,2,4-trisphosphate] | 52.1 ± 0.1 ºC | 57.6 ± 0.1 ºC | 7.7 ± 0.3 ºC | 3.8 ± 0.2 ºC | 52.2 and 52.1 and 52.0 | 57.6 (2×) and 57.7 | 7.7 | 52.1 | 3.8 | 57.6 | 875 | maintains quite good binding to IP3K | 850 | abolishes the ability to stimulate cellular Ca^2+ release | – |
| O=C(O)c1cc(NC(=S)NCCO[C@@H]2[C@H](O)[C@@H](OP(=O)(O)O)[C@H](OP(=O)(O)O)[C@@H](O)[C@@H]2OP(=O)(O)O)ccc1-c1c2ccc(=O)cc-2oc2cc(O)ccc12 [2-FITC-InsP3] | – | – | – | – | – | – | – | – | – | – | – | – | – | – | 68 |
